In PMC10931632, “Inhibition of Insulin-Regulated Aminopeptidase by Imidazo [1,5-α]pyridines—Synthesis and Evaluation” (International Journal of Molecular Sciences, 2024):
Converted amounts (≈) assume the structure as drawn. “Also recorded” adds a separate entry of the source.

What was measured:
human IRAP = target: T1, human IRAP (Homo sapiens, UniProt Q9UIQ6); assay: Inhibition of human membrane-bound IRAP overexpressed in HEK293 cells (hIRAP); type: biochemical
T1 construct: expressed in transfected cells
T1 sequence (Q9UIQ6 whole entry): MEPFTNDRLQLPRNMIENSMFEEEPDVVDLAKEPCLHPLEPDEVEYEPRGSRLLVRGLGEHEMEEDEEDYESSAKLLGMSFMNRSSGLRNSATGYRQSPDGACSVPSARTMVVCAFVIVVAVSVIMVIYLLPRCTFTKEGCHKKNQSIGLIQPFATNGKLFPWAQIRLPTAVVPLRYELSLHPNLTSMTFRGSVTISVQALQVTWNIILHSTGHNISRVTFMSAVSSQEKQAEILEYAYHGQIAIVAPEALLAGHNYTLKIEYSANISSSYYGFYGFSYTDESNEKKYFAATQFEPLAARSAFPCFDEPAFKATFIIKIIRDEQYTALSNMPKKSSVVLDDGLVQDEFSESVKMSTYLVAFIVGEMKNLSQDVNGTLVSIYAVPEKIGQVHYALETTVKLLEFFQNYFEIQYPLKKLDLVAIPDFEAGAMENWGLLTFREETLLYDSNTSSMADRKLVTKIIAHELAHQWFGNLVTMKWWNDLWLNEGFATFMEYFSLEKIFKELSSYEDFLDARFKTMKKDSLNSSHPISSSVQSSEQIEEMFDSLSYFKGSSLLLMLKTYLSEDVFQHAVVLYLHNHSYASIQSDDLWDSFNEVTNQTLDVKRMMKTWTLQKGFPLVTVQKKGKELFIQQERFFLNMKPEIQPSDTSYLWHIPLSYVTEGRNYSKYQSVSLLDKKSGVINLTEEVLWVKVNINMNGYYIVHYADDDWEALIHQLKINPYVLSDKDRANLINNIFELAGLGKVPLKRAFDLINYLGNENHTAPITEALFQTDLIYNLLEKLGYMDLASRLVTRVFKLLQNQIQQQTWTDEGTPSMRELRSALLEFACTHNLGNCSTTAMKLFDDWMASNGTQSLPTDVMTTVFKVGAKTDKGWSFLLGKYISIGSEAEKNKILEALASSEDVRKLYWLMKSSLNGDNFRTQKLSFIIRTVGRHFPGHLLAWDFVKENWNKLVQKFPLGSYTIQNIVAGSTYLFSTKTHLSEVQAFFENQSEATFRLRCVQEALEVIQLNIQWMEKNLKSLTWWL
Method: (§1) Human IRAP and APN were overexpressed, as previously described.
(§2) Membrane preparations from frozen CHO cells and HEK293T cells with overexpressed IRAP and APN were prepared and handled as previously described.
(§3) Details for the assay used to evaluate the inhibitory activity of the compounds have already been published.

[1] = target: T2, human recombinant soluble IRAP (sIRAP) (Homo sapiens, UniProt Q9UIQ6); assay: Inhibition of human recombinant soluble IRAP (sIRAP); type: biochemical; conditions: human recombinant soluble enzyme
T2 construct: as well as the recombinant soluble enzyme (sIRAP)
T2 sequence (Q9UIQ6 155-1025 limits assumed): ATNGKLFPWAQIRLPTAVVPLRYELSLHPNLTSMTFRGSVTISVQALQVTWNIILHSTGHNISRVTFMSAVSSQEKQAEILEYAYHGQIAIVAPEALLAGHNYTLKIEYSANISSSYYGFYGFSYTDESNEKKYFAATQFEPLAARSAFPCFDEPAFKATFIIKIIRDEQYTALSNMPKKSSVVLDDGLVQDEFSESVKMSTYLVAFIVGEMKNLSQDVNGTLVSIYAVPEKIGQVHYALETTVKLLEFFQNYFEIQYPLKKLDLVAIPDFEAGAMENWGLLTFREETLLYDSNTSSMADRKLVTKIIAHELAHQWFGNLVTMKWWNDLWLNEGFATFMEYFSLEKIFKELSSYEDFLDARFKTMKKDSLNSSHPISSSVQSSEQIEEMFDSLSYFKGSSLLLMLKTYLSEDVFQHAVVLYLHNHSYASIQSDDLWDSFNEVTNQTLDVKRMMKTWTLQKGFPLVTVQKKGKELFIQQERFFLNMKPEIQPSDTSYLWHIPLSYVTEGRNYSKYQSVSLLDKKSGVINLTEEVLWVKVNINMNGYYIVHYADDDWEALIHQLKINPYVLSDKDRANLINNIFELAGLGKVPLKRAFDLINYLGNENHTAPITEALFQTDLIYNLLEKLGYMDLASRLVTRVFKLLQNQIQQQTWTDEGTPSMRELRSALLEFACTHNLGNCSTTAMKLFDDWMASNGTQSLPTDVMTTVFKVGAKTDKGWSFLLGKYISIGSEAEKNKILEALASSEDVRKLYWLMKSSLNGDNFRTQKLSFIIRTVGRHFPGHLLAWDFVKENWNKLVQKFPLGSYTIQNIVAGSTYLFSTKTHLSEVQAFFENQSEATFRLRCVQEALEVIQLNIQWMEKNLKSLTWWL
Text: as §3

[2] = target: T3, human aminopeptidase N (APN) (Homo sapiens, UniProt P15144); assay: Inhibition of human aminopeptidase N overexpressed in HEK293 cells; type: biochemical; conditions: for APN IC50 (µM)/pIC50: human aminopeptidase N overexpressed in HEK293 cells
T3 construct: expressed in transfected cells; host or cells: HEK293 / HEK293T cells, membrane preparations
T3 sequence (P15144 whole entry): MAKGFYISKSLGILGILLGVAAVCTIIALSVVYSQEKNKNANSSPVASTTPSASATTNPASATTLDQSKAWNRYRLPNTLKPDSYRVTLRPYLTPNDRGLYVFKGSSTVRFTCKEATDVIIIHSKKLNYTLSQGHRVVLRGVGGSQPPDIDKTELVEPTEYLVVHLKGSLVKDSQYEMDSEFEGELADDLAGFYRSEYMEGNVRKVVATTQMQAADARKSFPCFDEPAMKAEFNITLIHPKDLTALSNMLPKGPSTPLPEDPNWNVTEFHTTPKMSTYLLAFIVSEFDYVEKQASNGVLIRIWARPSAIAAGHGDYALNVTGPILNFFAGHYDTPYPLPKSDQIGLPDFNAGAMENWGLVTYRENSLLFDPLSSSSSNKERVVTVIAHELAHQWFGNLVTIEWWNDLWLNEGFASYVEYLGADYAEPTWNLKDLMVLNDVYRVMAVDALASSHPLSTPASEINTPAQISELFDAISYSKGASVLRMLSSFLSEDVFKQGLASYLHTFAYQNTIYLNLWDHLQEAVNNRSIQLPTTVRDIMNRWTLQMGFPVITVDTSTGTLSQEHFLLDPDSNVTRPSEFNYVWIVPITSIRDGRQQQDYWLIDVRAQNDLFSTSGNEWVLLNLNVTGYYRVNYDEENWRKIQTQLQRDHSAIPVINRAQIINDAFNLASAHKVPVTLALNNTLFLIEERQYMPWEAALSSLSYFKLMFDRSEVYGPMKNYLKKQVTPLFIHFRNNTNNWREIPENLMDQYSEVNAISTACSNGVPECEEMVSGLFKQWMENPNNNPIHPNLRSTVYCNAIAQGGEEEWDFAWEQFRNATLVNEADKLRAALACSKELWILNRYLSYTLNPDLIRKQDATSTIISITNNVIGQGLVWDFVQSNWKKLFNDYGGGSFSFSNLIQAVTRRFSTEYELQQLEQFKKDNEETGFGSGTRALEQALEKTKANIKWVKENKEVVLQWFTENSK
Method: as §1, §2, §3

IRAP [3] = target: T4, IRAP (Cricetulus griseus, UniProt A0A8C2M8D5); assay: Mechanism of action enzyme kinetics with variable L-Leu-pNA substrate on IRAP from CHO cell membranes; type: biochemical, Chinese hamster; conditions: Vmax decreases, Km constant
T4 sequence (A0A8C2M8D5 1-1025): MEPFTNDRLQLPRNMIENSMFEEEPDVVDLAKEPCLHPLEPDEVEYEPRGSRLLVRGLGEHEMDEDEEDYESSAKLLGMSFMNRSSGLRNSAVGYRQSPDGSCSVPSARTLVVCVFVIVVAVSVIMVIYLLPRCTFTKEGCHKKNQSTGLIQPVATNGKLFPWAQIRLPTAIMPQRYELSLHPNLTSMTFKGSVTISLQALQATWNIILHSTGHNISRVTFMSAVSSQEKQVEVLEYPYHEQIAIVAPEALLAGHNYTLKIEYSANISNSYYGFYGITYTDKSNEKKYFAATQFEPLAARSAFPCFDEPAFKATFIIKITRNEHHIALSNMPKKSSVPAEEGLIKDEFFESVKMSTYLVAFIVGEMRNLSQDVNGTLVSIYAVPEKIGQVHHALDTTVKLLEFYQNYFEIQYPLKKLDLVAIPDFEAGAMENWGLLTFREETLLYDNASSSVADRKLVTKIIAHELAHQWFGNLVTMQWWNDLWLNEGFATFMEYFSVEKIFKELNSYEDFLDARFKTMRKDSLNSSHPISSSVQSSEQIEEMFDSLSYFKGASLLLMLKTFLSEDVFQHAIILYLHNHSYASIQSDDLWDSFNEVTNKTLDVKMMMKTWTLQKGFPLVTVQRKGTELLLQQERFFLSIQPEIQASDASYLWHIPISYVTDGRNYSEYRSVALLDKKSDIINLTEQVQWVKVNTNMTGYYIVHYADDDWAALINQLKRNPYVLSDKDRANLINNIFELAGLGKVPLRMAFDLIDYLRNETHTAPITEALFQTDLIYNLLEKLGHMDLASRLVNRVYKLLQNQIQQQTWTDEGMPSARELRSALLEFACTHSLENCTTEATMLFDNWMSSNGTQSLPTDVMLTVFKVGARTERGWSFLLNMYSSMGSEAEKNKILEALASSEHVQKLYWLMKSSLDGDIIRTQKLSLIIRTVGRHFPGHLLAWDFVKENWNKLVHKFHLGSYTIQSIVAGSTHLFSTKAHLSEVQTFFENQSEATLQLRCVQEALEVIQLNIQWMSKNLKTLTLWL
Method: The design of the enzyme kinetics experiments followed that of the inhibitory experiments, except for the substrate concentrations that were variable at 0.1, 0.2, 0.3, 0.4, 0.8, 1.6 and 2.4 mM. The serial dilution of the compound stock solution was reproduced across all eight rows of a set of four 96-well plates. Four technical replicates were obtained at each substrate concentration by adding the same substrate solution to the top or bottom four rows of each 96-well plate, i.e., a total of four plates were used for this experiment, including a no-substrate control. The absorbance of these plates was then measured every 10 min to follow the enzymatic reaction over time. Data obtained in the presence of 100 µM inhibitor were used to define maximal IRAP inhibition under these assay conditions, i.e., this slope was subtracted from those obtained at lower inhibitor concentrations. Data were fitted to a model for non-competitive inhibition within GraphPad and compared with models for competitive and uncompetitive binding. The non-competitive inhibition model explains the experimental data with a probability of 99.99%, compared to 0.01% and <0.01% for competitive and uncompetitive inhibition, respectively. […]

IRAP [4] = tested on: IRAP; design: method as in PMID 27078680; conditions: jump-dilution experiments; cited from earlier work
[5] = LogD7.4 (DMPK Wave 1 panel); type: physicochemical; conditions: pH 7.4; average ± SD of three test occasions
Method: (§4) Pre-clinical profiling of the compounds was performed at AstraZeneca R&D in Gothenburg, Sweden, applying an integrated panel of assays referred to as the DMPK Wave 1 panel.

[6] = Dried DMSO solubility in aqueous phosphate buffer pH 7.4; type: physicochemical; conditions: thermodynamic from solid; aqueous phosphate buffer (PBS) at pH 7.4; read-out: Sol. (dried DMSO solubility)
Method: as §4

[7] = Human liver microsome intrinsic clearance; type: in vitro ADME; conditions: human liver microsomes; for microsomal CLint: read-out: HLM Clint; for half-life: read-out: HLM t ½
Method: as §4

[8] = Rat hepatocytes intrinsic clearance; type: in vitro ADME; conditions: for hepatocyte CLint: read-out: Rat hep. Clint; for half-life: read-out: Rat hep. t ½
Method: as §4

[9] = Human plasma protein binding; type: in vitro ADME; conditions: read-out: PPB
Method: as §4

Human plasma stability = type: in vitro ADME; conditions: after 18 h incubation
Method: as §4

IC50 (human IRAP) [µM] | IC50 [1] [µM] | impact on the activity of human APN ([2]; at concentrations up to 125 µM) | logD [5] | solubility [6] [µM] | microsomal CLint [7] [µL/min/mg] | half-life [7] [min] | hepatocyte CLint [8] [µL/min/1e6 cells] | half-life [8] [min] | fraction unbound [9] | Plasma Stab (Human plasma stability) [% compound remaining] | Compound | APN IC50 (µM)/pIC50 [2] | mode of inhibition versus substrate (IRAP [3]) | reversibility of binding to IRAP (IRAP [4])
1.3 | 1 | no impact |  |  |  |  |  |  |  |  | COc1ccccc1-c1nc(C2CCCN2C(=O)N[C@@H](C)c2ccccc2)n2ccccc12 (mixture of isomers) [Compound 6a, 2-(1-(2-Methoxyphenyl)imidazo [1,5-a]pyridin-3-yl)-N-((S)-1-phenylethyl)pyrrolidine-1-carboxamide] | neither compound showed any inhibitory activity; also recorded: inactive (2) | non-competitive binding with the substrate | binds reversibly
 |  |  | 3.3 ± 0.4 | 0.6 to 2 (≈ 0.266 to 0.885 µg/mL) | > 300 | < 2.3 | > 300 | < 2.3 | 0.007 ± 0.001 | 76 ± 6 | COc1ccccc1-c1nc(C2CCCN2C(=S)NCc2ccccc2)n2ccccc12 (stereo not drawn) [Compound 6v, N-Benzyl-2-(1-(2-methoxyphenyl)imidazo [1,5-a]pyridin-3-yl)pyrrolidine-1-carbothioamide] |  |  | 
 |  |  | 2.9 ± 0.6 | 55 ± 12 (≈ 22.8 µg/mL) | > 300 | < 2.3 | > 300 | < 2.3 | 0.006 ± 0.001 | 99 ± 5 | COc1ccccc1-c1nc(CN(C)C(=O)N[C@@H](C)c2ccccc2)n2ccccc12 [Compound 6m, (S)-1-((1-(2-Methoxyphenyl)imidazo [1,5-a]pyridin-3-yl)methyl)-1-methyl-3-(1-phenylethyl)urea] |  |  | 
50 |  |  |  |  |  |  |  |  |  |  | COc1ccccc1-c1nc(C2CCCN2C(=O)N[C@H](C)c2ccccc2)n2ccccc12 (mixture of isomers) [Compound 6b, 2-(1-(2-Methoxyphenyl)imidazo [1,5-a]pyridin-3-yl)-N-((R)-1-phenylethyl)pyrrolidine-1-carboxamide] | neither compound showed any inhibitory activity; also recorded: inactive (2) |  | 
